Laboratory results as given in patent publication US9309179B2 (FAB PHARMA S.A.S., priority 2006, dated 2016).
pIC50: −log10 of the molar value. ≈ marks a conversion by molar mass, not a printed value. Structures can show the parent of a compound that is named as a salt. Where two headings read alike, the source gives them in different places.

Experiments:
[1] = molecular target: T1, recombinant E. coli FabI enzyme (Escherichia coli, UniProt P0AEK4); assay: FabI inhibition, fluorescence-based NADH assay; type: biochemical
T1 construct: 6-His (C); made in house; host or cells: prokaryotic expression vector
Protocol: Compound inhibitory activity of FabI enzyme is measured in vitro by the IC50 determination using a fluorescent based assay.
The protein FabI from E. coli is prepared and purified using standard methods for recombinant protein expression after cloning of the gene in a prokaryotic expression vector.
The biochemical activity of the FabI enzyme is assessed using the following method.
The assay buffer “AB” contains 50 mM Hepes pH7.5, 100 μM Dithiothreitol, 0.006% Triton-X100. The following components are added in a black polystyrene Costar plate up to a final volume of 55 μL: 1.5 μL DMSO, or inhibitor dissolved in DMSO and 53.5 μL of a FabI/NADH/NAD+ mixture in AB. After 60 min of pre-incubation at room temperature, the reaction is started by addition of 5 μL of Crotonoyl-CoA to a final volume of 60 μL. This reaction mixture is then composed of 40 nM FabI (produced in house from E. coli, C-terminal 6-His tagged), 20 μM NADH (Biochemika), 10 μM NAD+ (Biochemika), 50 μM Crotonoyl-CoA (Biochemika) and compound at defined concentration. Fluorescence intensity of NADH (lex=360 nm, lem=520 nm) is measured immediately after Crotonoyl-CoA addition, and 2 hours later by a Fluostar Optima (BMG). Enzyme activity is proportional to the signal decrease from which inhibition percentages are derived. For IC50 determinations, the inhibitor is tested at 6 to 10 different concentrations, and the related inhibitions are fitted to a classical langmuir equilibrium model using XLFIT (IDBS).
In Vitro Inhibition of Recombinant E. coli FabI Enzyme by Selected Compounds of Formula (I).

S. aureus NEM14157 = assay: MIC, broth microdilution; type: cell-based; details: Staphylococcus aureus, read-out: MIC S. aureus NEM14157
Protocol: (§1) The compounds of the present invention are useful antibacterial agents having a selective spectrum of activity in vitro against standard bacterial strains which are used to screen for activity against pathogenic bacteria. […] The activity is presented as Minimum Inhibitory Concentration (MIC) expressed in μg/ml.
(§2) Whole-cell antimicrobial activity was determined by broth microdilution method in microtiterplates. The compound was tested in serial 4-fold dilutions ranging from 0.06 to 64 mcg/mL. Test organisms were selected from the following laboratory strains: Staphylococcus aureus CIP 76.25, Staphylococcus aureus BAA39 MDR, Staphylococcus aureus NEM 14157 PeniR, Staphylococcus aureus CIP 54.146, Escherichia coli CIP 76.24. Bacteria were tested in Tryptic Soy (TS) or Mueller Hinton (MH) broth using an inoculum of 10^4 to 10^6 UFC/mL incubated at 37° C. for 20 h.
(§3) The minimum inhibitory concentration (MIC) was determined as the lowest concentration of compound at which no visible bacteria growth is observed (90% inhibition of absorbance of at […].)

S. aureus BAA39MDR = assay: MIC, broth microdilution; type: cell-based; details: Staphylococcus aureus, 20 h, read-out: MIC S. aureus BAA39MDR
Protocol: as §1, §2, §3

E. coli CIP 76.24 = assay: MIC, broth microdilution; type: cell-based; details: Escherichia coli, read-out: MIC E. coli CIP 76.24
Protocol: as §1, §2, §3

S. aureus CIP 76.25 = assay: MIC, broth microdilution; type: cell-based; details: Staphylococcus aureus, read-out: MIC S. aureus CIP 76.25
Protocol: as §1, §2, §3

[2] = NEM14157, broth microdilution, 37° C., 20 h
[3] = CIP76, broth microdilution, 37° C., 20 h
[4] = recombinant E. coli FabI 40 nM, 60 min pre-incubation, NADH fluorescence, read-out: IC50

T1 sequence (P0AEK4 whole entry): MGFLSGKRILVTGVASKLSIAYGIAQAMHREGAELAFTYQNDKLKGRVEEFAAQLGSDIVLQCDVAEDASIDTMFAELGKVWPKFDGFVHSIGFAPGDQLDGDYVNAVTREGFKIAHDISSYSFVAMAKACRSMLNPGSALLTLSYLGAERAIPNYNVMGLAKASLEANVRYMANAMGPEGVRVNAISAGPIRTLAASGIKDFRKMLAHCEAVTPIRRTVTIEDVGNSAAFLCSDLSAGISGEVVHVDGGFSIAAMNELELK

Structure (SMILES) | MIC (S. aureus NEM14157; [2]) | MIC (S. aureus BAA39MDR; broth microdilution, 37° C.) | MIC (E. coli CIP 76.24; [3]) | MIC (S. aureus CIP 76.25; [3]) | also measured
CCc1ccc(Oc2ccc(NCCCCO)cc2F)c(O)c1 [Example 37, 5-ethyl-2-{2-fluoro-4-[(4-hydroxybutyl)amino]phenoxy}phenol] | 0.25 µg/mL (≈ 0.783 µM) | 0.25 µg/mL (≈ 0.783 µM) | 4 µg/mL (≈ 12.5 µM) | 0.062 µg/mL (≈ 0.194 µM) | pIC50 [1]: 6.39
CCCc1ccc(Oc2ccc(OC)cc2)c(O)c1 [Example 16, 2-(4-methoxyphenoxy)-5-propylphenol] | 0.25 µg/mL (≈ 0.968 µM) | 0.25 µg/mL (≈ 0.968 µM) | 4 µg/mL (≈ 15.5 µM) | 0.25 µg/mL (≈ 0.968 µM) | pIC50 [1]: 6.29
CCCc1ccc(Oc2nc(Cl)ccc2N)c(O)c1 [Example 1, 2-[(3-amino-6-chloropyridin-2-yl)oxy]-5-propylphenol] | 0.25 µg/mL (≈ 0.897 µM) | 1 µg/mL (≈ 3.59 µM) | 16 µg/mL (≈ 57.4 µM) | 1 µg/mL (≈ 3.59 µM) | 
CCCc1ccc(Oc2cc(F)nc(F)c2)c(O)c1 [Example 25B, 2-[(2,6-difluoropyridin-4-yl)oxy]-5-propylphenol] | 0.062 µg/mL (≈ 0.234 µM) | 0.062 µg/mL (≈ 0.234 µM) | 4 µg/mL (≈ 15.1 µM) | 0.062 µg/mL (≈ 0.234 µM) | pIC50 [1]: 6.24
Oc1cc(C(F)=C(F)F)ccc1Oc1cccc(F)n1 [Example 28, 2-[(6-fluoropyridin-2-yl)oxy]-5-(trifluorovinyl) phenol] |  |  |  |  | pIC50 [1, 4]: 6.07
CCc1cc(O)c(Oc2cccnc2F)cc1F [Example 87, 5-Ethyl-4-fluoro-2-(2-fluoropyridin-3yloxy)phenol] | 0.016 µg/mL (≈ 0.0637 µM) | 0.062 µg/mL (≈ 0.247 µM) | 0.25 µg/mL (≈ 0.995 µM) | 0.062 µg/mL (≈ 0.247 µM) | pIC50 [1]: 7.51
CCCc1ccc(Oc2cccc(F)n2)c(O)c1 [Example 5, 2-[(6-fluoropyridin-2-yl)oxy]-5-propylphenol] | 0.25 µg/mL (≈ 1.01 µM) | 0.25 µg/mL (≈ 1.01 µM) | 4 µg/mL (≈ 16.2 µM) | 0.25 µg/mL (≈ 1.01 µM) | pIC50 [1, 4]: 6.01
CCc1ccc(Oc2ccc(C(C)=O)cc2F)c(OC(=O)CN)c1 [Example 85, acetate hydrochloride] |  |  |  |  | pIC50 [1, 4]: 6.96; MIC (E. coli CIP 76.24; CIP76, 20 h): 1 µg/mL; MIC (S. aureus CIP 76.25; CIP76, 20 h): 0.062 µg/mL
Oc1cc(Cl)ccc1Oc1ccc(Cl)cc1Cl [Triclosan, 5-chloro-2-(2,4-dichloro-phenoxy)-phenol, reference compound] |  |  |  |  | MIC (E. coli CIP 76.24; CIP76, 20 h): 0.25 µg/mL (≈ 0.863 µM); MIC (S. aureus CIP 76.25; CIP76, 20 h): 0.125 µg/mL (≈ 0.432 µM)
CCc1ccc(Oc2ccc(S(C)(=O)=O)cc2F)c(O)c1 [Example 64, 5-ethyl-2-[2-fluoro-4-(methylsulfonyl)phenoxy]phenol] | 0.062 µg/mL (≈ 0.2 µM) | 0.062 µg/mL (≈ 0.2 µM) | 1 µg/mL (≈ 3.22 µM) | 0.25 µg/mL (≈ 0.806 µM) | pIC50 [1]: 6.89
CCCc1ccc(Oc2cccnc2N)c(O)c1 [Example 55, 2-(2-Aminopyridin-3-yloxy)-5-propylphenol] |  |  | 1 µg/mL (≈ 4.09 µM) | 0.25 µg/mL (≈ 1.02 µM) | pIC50 [1]: 7.04
CCc1ccc(Oc2cc(F)ccc2N)c(O)c1 [Example 50, 2-(2-amino-5-fluorophenoxy)-5-ethylphenol] |  |  |  |  | pIC50 [1, 4]: 6.52
CCc1ccc(Oc2ccc(OCCCN)cc2F)c(O)c1 [Example 39, 2-[4-(3-aminopropoxy)-2-fluorophenoxy]-5-ethyl phenol] |  |  |  |  | MIC (S. aureus NEM14157; NEM14157, 20 h): 1 µg/mL (≈ 3.27 µM); MIC (S. aureus BAA39MDR): 1 µg/mL (≈ 3.27 µM); MIC (E. coli CIP 76.24; CIP76, 20 h): 16 µg/mL (≈ 52.4 µM); MIC (S. aureus CIP 76.25; CIP76, 20 h): 1 µg/mL (≈ 3.27 µM)
CCc1cc(O)c(Oc2cccc(F)n2)cc1F [Example 57] |  |  | 4 µg/mL (≈ 15.9 µM) | 0.25 µg/mL (≈ 0.995 µM) | pIC50 [1]: 5.96

More lines, main results first:

MIC (S. aureus NEM14157; [2]) | MIC (S. aureus BAA39MDR; broth microdilution, 37° C.) | MIC (E. coli CIP 76.24; [3]) | MIC (S. aureus CIP 76.25; [3]) | Structure (SMILES) | also measured
1 µg/mL (≈ 3.79 µM) | 1 µg/mL (≈ 3.79 µM) | 16 µg/mL (≈ 60.7 µM) | 1 µg/mL (≈ 3.79 µM) | CCCc1ccc(Oc2cccc(Cl)n2)c(O)c1 [Example 6, 2-[(6-chloropyridin-2-yl)oxy]-5-propylphenol] | 
0.062 µg/mL (≈ 0.185 µM) | 0.062 µg/mL (≈ 0.185 µM) | 4 µg/mL (≈ 12 µM) | 0.062 µg/mL (≈ 0.185 µM) | CCc1ccc(Oc2ccc(OCCCC(=O)O)cc2F)c(O)c1 [Example 74, 4-[4-(4-Ethyl-2-hydroxy-phenoxy)-3-fluoro-phenoxy]-butyric acid] | 
 |  | > 16 µg/mL | 2 µg/mL (≈ 8.19 µM) | CCCc1ccc(Oc2cccc(N)n2)c(O)c1 [Example 7, 2-[(6-aminopyridin-2-yl)oxy]-5-propylphenol] | 
 |  | 1 µg/mL (≈ 3.21 µM) | 0.25 µg/mL (≈ 0.803 µM) | CCc1ccc(Oc2ccc(S(N)(=O)=O)cc2F)c(O)c1 [Example 65, 4-(4-ethyl-2-hydroxyphenoxy)-3-fluorobenzene sulfonamide] | 
 |  | 16 µg/mL (≈ 55.3 µM) | 0.25 µg/mL (≈ 0.864 µM) | CCCNc1ccc(Oc2ccc(CC)cc2O)c(F)c1 [Example 82, 5-ethyl-2-[2-fluoro-4-(propylamino)phenoxy]phenol] | 
0.062 µg/mL (≈ 0.206 µM) | 0.062 µg/mL (≈ 0.206 µM) | 4 µg/mL (≈ 13.3 µM) | 0.062 µg/mL (≈ 0.206 µM) | CCc1ccc(Oc2ccc(C(=O)CCCO)cc2)c(O)c1 [Example 86, 1-[4-(4-ethyl-2-hydroxyphenoxy)phenyl]-4-hydroxy butan-1-one] | 
0.25 µg/mL (≈ 1.09 µM) | 0.25 µg/mL (≈ 1.09 µM) | 1 µg/mL (≈ 4.36 µM) | 0.25 µg/mL (≈ 1.09 µM) | CCc1ccc(Oc2ccccc2N)c(O)c1 [Example 34, 2-(2-aminophenoxy)-5-ethylphenol] | 
1 µg/mL (≈ 2.3 µM) | 0.25 µg/mL (≈ 0.574 µM) | 4 µg/mL (≈ 9.19 µM) | 0.062 µg/mL (≈ 0.142 µM) | CCc1ccc(Oc2ccc(OCCCN3C(=O)c4ccccc4C3=O)cc2F)c(O)c1 [Example 38, 2-{3-[4-(4-Ethyl-2-hydroxy-phenoxy)-3-fluoro-phenoxy]-propyl}-isoindole-1,3-dione] | 
 |  | 16 µg/mL (≈ 40.4 µM) | 0.25 µg/mL (≈ 0.631 µM) | CCc1ccc(Oc2ccc(S(=O)(=O)NCCNC(C)=O)cc2F)c(O)c1 [Example 70, N-{2-[4-(4-Ethyl-2-hydroxy-phenoxy)-3-fluoro-benzenesulfonylamino]-ethyl}-acetamide] | 
 |  | 16 µg/mL (≈ 55.9 µM) | 4 µg/mL (≈ 14 µM) | Oc1cc(Cn2cncn2)ccc1Oc1cccc(F)n1 [Example 32, 2-[(6-fluoropyridin-2-yl)oxy]-5-(1H-1,2,4-triazol-1-ylmethyl)phenol] | 
 |  | 16 µg/mL (≈ 45 µM) | 0.25 µg/mL (≈ 0.703 µM) | CCc1ccc(Oc2ccc(S(=O)(=O)NCCO)cc2F)c(O)c1 [Example 67, 4-(4-ethyl-2-hydroxyphenoxy)-3-fluoro-N-(2-hydroxyethyl)benzenesulfonamide] | 
0.25 µg/mL (≈ 1.07 µM) | 0.25 µg/mL (≈ 1.07 µM) | 4 µg/mL (≈ 17.1 µM) | 0.25 µg/mL (≈ 1.07 µM) | CCc1ccc(Oc2cccc(F)n2)c(O)c1 [Example 3, 5-ethyl-2-[(6-fluoropyridin-2-yl)oxy]phenol] | 
 |  | 16 µg/mL (≈ 60.3 µM) | 0.25 µg/mL (≈ 0.942 µM) | CCCc1ccc(Oc2cc(F)cc(F)n2)c(O)c1 [Example 25A, 2-[(4,6-difluoropyridin-2-yl)oxy]-5-propylphenol] | 
0.25 µg/mL (≈ 0.654 µM) | 0.25 µg/mL (≈ 0.654 µM) | 16 µg/mL (≈ 41.8 µM) | 0.25 µg/mL (≈ 0.654 µM) | CCc1ccc(Oc2ccc(NCCCNS(C)(=O)=O)cc2F)c(O)c1 [Example 79, N-methanesulfonyl-N-1-[4-(4-ethyl-2-hydroxyphenoxy)-3-fluorophenyl]propan-1,3-diamine] | 
 |  | 16 µg/mL (≈ 54.7 µM) | 0.25 µg/mL (≈ 0.855 µM) | CCc1ccc(Oc2ccc(S(C)(=O)=O)cc2)c(O)c1 [Example 47, 5-ethyl-2-[4-(methylsulfonyl)phenoxy]phenol] | 
 |  | 16 µg/mL (≈ 45.5 µM) | 1 µg/mL (≈ 2.85 µM) | CCc1ccc(Oc2ccc(NS(=O)(=O)C3CC3)cc2F)c(O)c1 [Example 52, N-[4-(4-ethyl-2-hydroxyphenoxy)-3-fluorophenyl]cyclopropane sulfonamide] | 
 |  | 4 µg/mL (≈ 16.2 µM) | 0.25 µg/mL (≈ 1.01 µM) | CCc1cc(O)c(Oc2ccc(N)cc2)cc1F [Example 62, 2-(4-aminophenoxy)-5-ethyl-4-fluorophenol] | 
 |  | 4 µg/mL (≈ 13.7 µM) | 0.25 µg/mL (≈ 0.858 µM) | CCc1ccc(Oc2ccc(NCCO)cc2F)c(O)c1 [Example 81, 5-Ethyl-2-[2-fluoro-4-(2-hydroxyethylamino)-phenoxy]phenol] | 
 |  | 16 µg/mL (≈ 47.3 µM) | 0.25 µg/mL (≈ 0.739 µM) | CCc1ccc(Oc2ccc(NCc3cccnc3)cc2F)c(O)c1 [Example 66, 5-ethyl-2-{2-fluoro-4-[(pyridin-3-ylmethyl)amino]phenoxy}phenol] | 
